From patent US9255088B2, “Premature-termination-codons readthrough compounds” (The Regents of the University of California, priority 2010, dated 2016)

Columns and labels:
[1] = test system: ATM-Ser1981 foci in AT153LA cells (TGA A); test: Irradiation-induced ATM-Ser1981 foci (IRIF) in AT153LA cells; for IRIF (ATMs1981): key: the positive results on various assays are also summarized and labeled as '+'; assay type: cell-based, human; conditions: for IR-induced ATMs1981 foci formation, readthrough activity: A-T153LA cells (TGA), FIG. 13; for IRIF-ATM (%) (30 μM): Table 4, IR-induced ATMs1981 nuclear foci formation; for IRIF (ATMs1981): summary of positive results
Experimental: To evaluate the function of RTC-induced ATM protein, we measured irradiation-induced foci (IRIF) formation of ATM-Ser1981 in the same ATI53LA cells (TGA A). […] The maximum IRIF induction achieved in A-T cells by 10 μM RTC#13 was ˜40% of wild-type level. As a positive readthrough control, 144 μM of G418 (100 μg/ml) was used to treat cells. Our previous studies had shown that, at this concentration, […] induced a maximum level of ATMs1981 IRIF (Lai et al., 2004).
Immunostaining of nuclear foci of ATM-Ser1981 was performed as previously reported (Du et al., 2007). In brief, after being treated with compound for 4 d, cells were irradiated with 2 Gy and incubated at 37° C. for 30 min. The cells were dropped onto coverslips, fixed with 4% paraformaldehyde, and permeabilized. Coverslips were blocked for 1 h and incubated with mouse anti-ATM pSer1981 for 1 h (1:500; Rockland Immunochemicals, Inc). After a second blocking, cells were stained with FITC-conjugated anti-mouse IgG (1:150; Jackson ImmunoResearch Laboratories) for 1 h and mounted onto slides.
Studies on IR-induced ATMs1981 foci formation by RTC#13 and derivatives 13a, 13b, 13d, 13e, 13f, 13g, 13h, 13i, 13j, and 13k in A-T153LA cells (TGA) were performed according to the procedures provided in Example 1.
(§1) These two series, 13 and 15, were again tested for readthrough activity using the assay in which the ATM protein kinase activity was measured by functional flow cytometry (FC-ATM) (Table 4 and FIG. 12). A second assay, irradiation (1R)-induced ATMs1981 nuclear foci formation (IRIF-ATM), was also used to confirm the readthrough activity of these compounds (Table 4 and FIG. 13). Table 3 summarizes the data for the analogues 13 and 15 (at 30 μM), in which the groups R, R′, and X were varied. More detailed data are reported in FIG. 5 (for FC-ATM assay), and in FIG. 6 (for IRIF-ATM assay). […] Thus, the pyrimidinedione unit serves as a good structural replacement for the 2-imino and 2-thioxo thiazolidin-4-one units.

[2] = test system: ATMs1981 autophosphorylation in AT153LA cells (TGA); test: Flow cytometry ATMs1981 autophosphorylation (FC-ATM) in AT153LA cells; assay type: cell-based, human; parameters: FC-ATM (Delta-FI, 30 μM): unit not given here; conditions: for FCATMs1981: summary of positive results; for FCATMs1981: key: the positive results on various assays are also summarized and labeled as '+'
Experimental: FC-SMC1 assay was performed as recently described (Nahas et al., 2009). FC-ATM-Ser1981 assay was based on Honda's assay (Honda et al., 2009, Leukemia. 23:409-414) with modifications. In brief, cells were resuspended in PBS and radiated for 10 Gy. After 1 h, the cells were fixed and permeabilized using the FIX & PERM cell permeabilization kit (Invitrogen). The cells were then incubated with 1 μl of mouse ATM-Ser1981 antibody (Cell Signaling Technology) for 2 h at room temperature. Cells were washed and resuspended in 100 μl PBS with Alexa Fluor 488 anti-mouse IgG (Invitrogen) for 45 min. Cells were next washed and resuspended in PBS with 0.2% paraformaldehyde and analyzed using a FACSCalibur (BD).
Studies on readthrough activity of RTC#13 derivatives as measured by FC-ATMS 1981 were performed according to the procedures provided in Example 1.
These two series, 7 and 9, were tested for readthrough activity using an assay in which the ATM protein kinase activity was measured using a flow cytometry-based ATMs1981 autophosphorylation assay (FC-ATM) (Nahas, S. A; et al., Clin. Chem. 2009, 55, 463-72). […] An increased Delta-FI indicates the restoration of ATM kinase activity by a compound.
as §1

[3] = Table 4, compounds 13 and 15, 30 μM
[4] = Table 2, compounds 7, 30 µM, change in fluorescence intensity before and after ionizing radiation

SMILES	IRIF-ATM (%) (30 μM) [1]	FC-ATM (Delta-FI, 30 μM) [2, 3]	FCATMs1981 [2]	FC-ATM (Delta-FI, 30 μM) ([2]; Table 3, compounds 9, 30 μM)	other results
O=Cc1cn(Cc2ccc(-c3ccccc3[N+](=O)[O-])o2)c(=O)[nH]c1=O [Compound 13d, 1-((5-(2-nitrophenyl)furan-2-yl)methyl)-2,4-dioxo-1,2,3,4-tetrahydropyrimidine-5-carbaldehyde]	16.0%	2.24	+	–	IR-induced ATMs1981 foci formation, readthrough activity [1]: statistically significant readthrough activity; IRIF (ATMs1981) [1]: +
N=C1NC(=O)/C(=C/c2cn(Cc3ccc(-c4ccccc4[N+](=O)[O-])o3)c(=O)[nH]c2=O)S1 [Compound 13j, (Z)-5-((2-imino-4-oxothiazolidin-5-ylidene)methyl)-1-((5-(2-nitrophenyl)furan-2-yl)methyl)pyrimidine-2,4(1H,3H)-dione]	18%	2.42	+	–	IR-induced ATMs1981 foci formation, readthrough activity [1]: statistically significant readthrough activity; IRIF (ATMs1981) [1]: +
N=C1NC(=O)/C(=C/c2cc3ccccc3o2)S1 [Compound 9a, (Z)-5-(benzofuran-2-ylmethylene)-2-iminothiazolidin-4-one]	–	–	–	negative	–
Cc1cn(Cc2ccc(-c3ccccc3F)o2)c(=O)[nH]c1=O [Compound 13h, 1-((5-(2-fluorophenyl)furan-2-yl)methyl)-5-methylpyrimidine-2,4(1H,3H)-dione]	9.6%	6.16	+	–	IR-induced ATMs1981 foci formation, readthrough activity [1]: statistically significant readthrough activity; IRIF (ATMs1981) [1]: +
COc1cccc(-c2ccc(/C=C3\SC(=S)NC3=O)o2)c1 [Compound 7o]	–	–	+	–	FC-ATM (Delta-FI, 30 μM) [2, 4]: 2.66
O=C1NC(=S)S/C1=C\c1cc2ccccc2[nH]1 [Compound 9h, (Z)-5-((1H-indol-2-yl)methylene)-2-thioxothiazolidin-4-one]	–	–	–	negative	–
CN1C(=N)S/C(=C\c2ccc(-c3ccccc3[N+](=O)[O-])o2)C1=O [Compound 7c, (Z)-2-imino-3-methyl-5-((5-(2-nitrophenyl)furan-2-yl)methylene)thiazolidin-4-one]	–	–	–	–	FC-ATM (Delta-FI, 30 μM) [2, 4]: negative
N=C1NC(=O)/C(=C/c2ccc(-c3ccccn3)o2)S1 [Compound 9d, (Z)-2-imino-5-((5-(pyridin-2-yl)furan-2-yl)methylene)thiazolidin-4-one]	–	–	–	negative	–
N=C1NC(=O)/C(=C/c2c[nH]c3ccccc23)S1 [Compound 9c, (Z)-5-((1H-indol-3-yl)methylene)-2-iminothiazolidin-4-one]	–	–	–	negative	–
N=C1NC(=O)/C(=C/c2cc3ccccc3[nH]2)S1 [Compound 9b, (Z)-5-((1H-indol-2-yl)methylene)-2-iminothiazolidin-4-one]	–	–	–	negative	–
N=C1NC(=O)/C(=C/c2ccc(-c3ccccc3)s2)S1 [Compound 9e, (Z)-2-imino-5-((5-phenylthiophen-2-yl)methylene)thiazolidin-4-one]	–	–	–	negative	–
COc1ccccc1-c1ccc(/C=C2\SC(=S)NC2=O)o1 [Compound 7l, (Z)-5-((5-(2-methoxyphenyl)furan-2-yl)methylene)-2-thioxothiazolidin-4-one]	–	–	–	–	FC-ATM (Delta-FI, 30 μM) [2, 4]: negative
O=C1NC(=S)S/C1=C\c1c[nH]c2ccccc12 [Compound 9i, (Z)-5-((1H-indol-3-yl)methylene)-2-thioxothiazolidin-4-one]	–	–	–	negative	–
O=c1ccn(Cc2ccc(-c3ccccc3F)o2)c(=O)[nH]1 [Compound 13g, 1-((5-(2-fluorophenyl)furan-2-yl)methyl)pyrimidine-2,4(1H,3H)-dione]	20%	5.43	+	–	IR-induced ATMs1981 foci formation, readthrough activity [1]: all RTC#13 derivatives show statistically significant readthrough activity except for Derivative 13g
Cc1cn(Cc2ccc(-c3ccccc3[N+](=O)[O-])o2)c(=O)[nH]c1=O [Compound 13c]	negative	negative	–	–	–
O=C1NC(=S)S/C1=C\c1ccc(-c2ccccn2)o1 [Compound 9j, (Z)-5-((5-(pyridin-2-yl)furan-2-yl)methylene)-2-thioxothiazolidin-4-one]	–	–	–	negative	–
O=C1NC(=S)S/C1=C\c1ccc(-c2ccccc2C(F)(F)F)o1 [Compound 7k, (Z)-2-thioxo-5-((5-(2-(trifluoromethyl)phenyl)furan-2-yl)methylene)thiazolidin-4-one]	–	–	–	–	FC-ATM (Delta-FI, 30 μM) [2, 4]: negative
O=C1NC(=S)S/C1=C\c1cc2ccccc2o1 [Compound 9g, (Z)-5-(benzofuran-2-ylmethylene)-2-thioxothiazolidin-4-one]	–	–	+	3.50	FC-ATM readthrough activity [2]: positive results
O=C1NC(=S)S/C1=C\c1ccc(-c2cccc(Cl)c2)o1 [Compound 7p, (Z)-5-((5-(3-chlorophenyl)furan-2-yl)methylene)-2-thioxothiazolidin-4-one]	–	–	+	–	FC-ATM (Delta-FI, 30 μM) [2, 4]: 2.86
N=C1NC(=O)/C(=C/c2ccc(-c3ccccc3F)o2)S1 [Compound 7g, (Z)-5-((5-(2-fluorophenyl)furan-2-yl)methylene)-2-iminothiazolidin-4-one]	–	–	–	–	FC-ATM (Delta-FI, 30 μM) [2, 4]: negative
O=c1ccn(Cc2ccc(-c3cccc(Cl)c3)o2)c(=O)[nH]1 [Compound 13i, 1-((5-(3-chlorophenyl)furan-2-yl)methyl)pyrimidine-2,4(1H,3H)-dione]	11.33%	5.07	+	–	IR-induced ATMs1981 foci formation, readthrough activity [1]: statistically significant readthrough activity
N=c1ccn(Cc2ccc(-c3ccccc3[N+](=O)[O-])o2)c(=O)[nH]1 [Compound 15a, 4-imino-1-((5-(2-nitrophenyl)furan-2-yl)methyl)-3,4-dihydropyrimidin-2(1H)-one]	negative	negative	–	–	–
N=c1[nH]c(=O)n(Cc2ccc(-c3ccccc3[N+](=O)[O-])o2)cc1F [Compound 15b]	negative	negative	–	–	–
N=C1NC(=O)/C(=C/c2ccco2)S1 [Compound 9f, (Z)-5-(furan-2-ylmethylene)-2-iminothiazolidin-4-one]	–	–	–	negative	–
O=c1ccn(Cc2ccc(-c3ccccc3)o2)c(=O)[nH]1 [Compound 13e, 1-((5-phenylfuran-2-yl)methyl)pyrimidine-2,4(1H,3H)-dione]	9.4%	3.42	+	–	IR-induced ATMs1981 foci formation, readthrough activity [1]: statistically significant readthrough activity; IRIF (ATMs1981) [1]: +
O=c1[nH]c(=O)n(Cc2ccc(-c3ccccc3[N+](=O)[O-])o2)cc1F [Compound 13b, 5-fluoro-1-((5-(2-nitrophenyl)furan-2-yl)methyl)pyrimidine-2,4(1H,3H)-dione]	14.5%	2.08	+	–	IR-induced ATMs1981 foci formation, readthrough activity [1]: statistically significant readthrough activity
N=C1NC(=O)/C(=C/c2ccc(-c3cccc(Cl)c3)o2)S1 [Compound 7i, (Z)-5-((5-(3-chlorophenyl)furan-2-yl)methylene)-2-iminothiazolidin-4-one]	–	–	+	–	FC-ATM (Delta-FI, 30 μM) [2, 4]: 2.27
COc1cccc(-c2ccc(/C=C3\SC(=N)NC3=O)o2)c1 [Compound 7h, (Z)-2-imino-5-((5-(3-methoxyphenyl)furan-2-yl)methylene)thiazolidin-4-one]	–	–	+	–	FC-ATM (Delta-FI, 30 μM) [2, 4]: 1.90
